{
  "source": "paper PMC9655899",
  "about": "“Inhibition of Netosis with PAD Inhibitor Attenuates Endotoxin Shock Induced Systemic Inflammation” (International Journal of Molecular Sciences, 2022)",
  "assay_type_in_all_cases": "biochemical",
  "key": {"PAD2": {"target": "T1, PAD2 (Homo sapiens, UniProt Q9Y2J8)", "T1 construct": "gene PADI2", "T1 sequence (Q9Y2J8 whole entry)": "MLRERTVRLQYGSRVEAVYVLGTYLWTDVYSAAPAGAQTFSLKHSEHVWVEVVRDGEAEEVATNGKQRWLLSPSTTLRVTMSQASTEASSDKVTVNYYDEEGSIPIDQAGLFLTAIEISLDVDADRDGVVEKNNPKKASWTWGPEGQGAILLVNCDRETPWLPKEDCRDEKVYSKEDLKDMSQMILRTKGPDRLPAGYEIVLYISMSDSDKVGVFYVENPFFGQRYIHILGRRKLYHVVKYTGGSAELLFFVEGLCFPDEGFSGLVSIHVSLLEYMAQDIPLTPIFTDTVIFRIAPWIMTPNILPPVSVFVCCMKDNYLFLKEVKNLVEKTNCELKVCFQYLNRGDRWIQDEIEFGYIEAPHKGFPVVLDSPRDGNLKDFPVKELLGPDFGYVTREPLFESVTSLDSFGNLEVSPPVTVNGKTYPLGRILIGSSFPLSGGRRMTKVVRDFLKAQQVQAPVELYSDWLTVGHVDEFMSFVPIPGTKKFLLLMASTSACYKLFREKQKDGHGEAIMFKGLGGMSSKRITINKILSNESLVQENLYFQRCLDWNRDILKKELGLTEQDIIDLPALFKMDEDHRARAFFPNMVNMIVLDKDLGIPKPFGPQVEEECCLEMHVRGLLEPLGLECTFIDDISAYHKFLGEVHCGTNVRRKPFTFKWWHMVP", "assay": "PAD enzyme activity assay with purchased human PAD2 (BAEE colorimetric assay described for PAD4)"}, "mouse PAD4": {"target": "T2, mouse PAD4 (Mus musculus, UniProt Q9Z183)", "T2 construct": "gene Padi4", "T2 sequence (Q9Z183 whole entry)": "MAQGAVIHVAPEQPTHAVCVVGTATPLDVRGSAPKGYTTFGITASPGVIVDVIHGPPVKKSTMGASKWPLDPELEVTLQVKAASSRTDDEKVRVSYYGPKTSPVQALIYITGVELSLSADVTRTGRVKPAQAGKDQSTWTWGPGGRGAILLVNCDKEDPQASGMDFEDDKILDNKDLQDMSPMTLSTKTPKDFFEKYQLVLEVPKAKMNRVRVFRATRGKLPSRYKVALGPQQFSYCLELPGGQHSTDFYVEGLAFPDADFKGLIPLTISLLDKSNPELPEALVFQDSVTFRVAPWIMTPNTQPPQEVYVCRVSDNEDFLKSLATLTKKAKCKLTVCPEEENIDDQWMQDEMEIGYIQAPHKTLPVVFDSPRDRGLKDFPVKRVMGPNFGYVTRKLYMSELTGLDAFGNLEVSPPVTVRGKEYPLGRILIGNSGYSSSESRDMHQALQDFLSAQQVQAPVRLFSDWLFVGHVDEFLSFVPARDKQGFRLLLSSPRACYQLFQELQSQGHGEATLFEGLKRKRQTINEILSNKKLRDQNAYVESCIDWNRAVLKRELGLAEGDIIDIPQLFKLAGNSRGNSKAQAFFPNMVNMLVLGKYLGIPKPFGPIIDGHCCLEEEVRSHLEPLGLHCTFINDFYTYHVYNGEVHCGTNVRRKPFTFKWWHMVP", "assay": "BAEE citrullination colorimetric assay (diacetyl monoxime, A465) with purchased enzyme, […] min preincubation"}, "human PAD4": {"target": "T3, human PAD4 (Homo sapiens, UniProt Q9UM07)", "T3 construct": "gene PADI4", "T3 sequence (Q9UM07 whole entry)": "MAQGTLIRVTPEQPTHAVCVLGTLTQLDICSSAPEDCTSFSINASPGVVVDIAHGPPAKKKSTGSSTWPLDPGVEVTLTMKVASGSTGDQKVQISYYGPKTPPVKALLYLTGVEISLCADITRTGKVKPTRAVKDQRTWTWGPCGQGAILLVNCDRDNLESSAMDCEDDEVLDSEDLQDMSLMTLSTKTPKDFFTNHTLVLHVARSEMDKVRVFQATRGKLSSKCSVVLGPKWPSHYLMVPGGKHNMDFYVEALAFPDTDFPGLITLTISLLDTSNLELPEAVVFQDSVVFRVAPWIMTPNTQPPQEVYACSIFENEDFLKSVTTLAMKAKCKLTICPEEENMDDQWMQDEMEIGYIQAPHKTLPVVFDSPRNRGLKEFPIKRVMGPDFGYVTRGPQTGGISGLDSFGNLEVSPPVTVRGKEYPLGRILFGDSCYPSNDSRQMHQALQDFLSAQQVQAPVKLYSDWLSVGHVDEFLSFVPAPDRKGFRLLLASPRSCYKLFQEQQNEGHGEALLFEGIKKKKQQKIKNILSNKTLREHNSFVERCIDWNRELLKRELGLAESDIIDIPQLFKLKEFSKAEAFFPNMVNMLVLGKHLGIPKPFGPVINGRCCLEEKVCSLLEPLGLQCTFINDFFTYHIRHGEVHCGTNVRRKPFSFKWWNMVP", "assay": "BAEE citrullination colorimetric assay (diacetyl monoxime, A465) with purchased enzyme, […] min preincubation"}, "PAD3": {"target": "T4, PAD3 (Homo sapiens, UniProt Q9ULW8)", "T4 construct": "gene PADI3", "T4 sequence (Q9ULW8 1-664)": "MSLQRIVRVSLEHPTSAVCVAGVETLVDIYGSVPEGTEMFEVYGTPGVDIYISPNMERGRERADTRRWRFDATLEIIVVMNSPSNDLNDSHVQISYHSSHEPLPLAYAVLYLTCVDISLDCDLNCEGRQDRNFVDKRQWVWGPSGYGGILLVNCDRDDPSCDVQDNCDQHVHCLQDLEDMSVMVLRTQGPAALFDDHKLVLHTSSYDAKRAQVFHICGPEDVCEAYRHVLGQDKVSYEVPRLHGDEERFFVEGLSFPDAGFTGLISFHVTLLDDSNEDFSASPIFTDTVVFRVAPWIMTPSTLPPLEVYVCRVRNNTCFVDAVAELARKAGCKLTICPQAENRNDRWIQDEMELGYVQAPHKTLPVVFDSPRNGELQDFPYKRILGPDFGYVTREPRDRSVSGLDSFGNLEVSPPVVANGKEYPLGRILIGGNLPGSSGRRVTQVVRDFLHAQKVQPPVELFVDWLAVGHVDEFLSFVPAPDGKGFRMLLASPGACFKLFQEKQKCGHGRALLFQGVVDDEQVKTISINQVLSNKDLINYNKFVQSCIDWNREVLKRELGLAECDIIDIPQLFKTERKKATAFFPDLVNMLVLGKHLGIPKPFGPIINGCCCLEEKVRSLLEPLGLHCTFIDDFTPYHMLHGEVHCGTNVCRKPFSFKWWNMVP", "assay": "PAD enzyme activity assay with purchased human PAD3 (BAEE colorimetric assay described for PAD4)"}, "PAD1": {"target": "T5, PAD1 (Homo sapiens, UniProt Q9ULC6)", "T5 construct": "gene PADI1", "T5 sequence (Q9ULC6 1-663)": "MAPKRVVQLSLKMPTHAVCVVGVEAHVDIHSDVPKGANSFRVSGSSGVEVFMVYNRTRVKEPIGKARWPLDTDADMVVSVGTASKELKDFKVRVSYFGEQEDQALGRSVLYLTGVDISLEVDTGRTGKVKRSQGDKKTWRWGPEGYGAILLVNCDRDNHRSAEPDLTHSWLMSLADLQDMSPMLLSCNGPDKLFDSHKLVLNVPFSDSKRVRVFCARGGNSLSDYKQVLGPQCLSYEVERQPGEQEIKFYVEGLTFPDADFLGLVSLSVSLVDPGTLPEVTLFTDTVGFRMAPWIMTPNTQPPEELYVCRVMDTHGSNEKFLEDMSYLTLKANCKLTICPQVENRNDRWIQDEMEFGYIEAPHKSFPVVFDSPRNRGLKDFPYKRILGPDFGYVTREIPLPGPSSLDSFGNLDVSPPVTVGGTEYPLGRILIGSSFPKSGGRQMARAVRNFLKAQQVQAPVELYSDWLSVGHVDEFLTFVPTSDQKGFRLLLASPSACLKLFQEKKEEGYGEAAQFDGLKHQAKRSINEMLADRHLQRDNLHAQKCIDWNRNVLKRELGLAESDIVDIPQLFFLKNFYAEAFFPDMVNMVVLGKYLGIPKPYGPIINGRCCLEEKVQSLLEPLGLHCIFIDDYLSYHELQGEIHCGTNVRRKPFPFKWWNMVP", "assay": "PAD enzyme activity assay with purchased human PAD1 (BAEE colorimetric assay described for PAD4)"}},
  "data": [
    {"smiles": "CN(C)c1ccc2cc(C(=O)N[C@@H](CCCNC(=N)CCl)C(=O)NCc3ccccc3)ccc2c1", "note": "[YW3-56]", "values": [
      {"measurement": "IC50", "setting": "PAD2", "result": 6340, "unit": "nM"},
      {"measurement": "IC50", "setting": "mouse PAD4", "result": 2540, "unit": "nM"},
      {"measurement": "IC50", "setting": "human PAD4", "result": 1190, "unit": "nM"},
      {"measurement": "IC50", "setting": "PAD3", "result": 53400, "unit": "nM"},
      {"measurement": "IC50", "setting": "PAD1", "result": 1450, "unit": "nM"}
    ]}
  ]
}
